Measurements: the supplement of paper PMC10011410
± gives the standard deviation of the averaged measurements.

Tests used:
U-2 OS [1] = experiment: intracellular GSH:GSSG ratio (calculated); higher = more reduced glutathione pool; details: 24 h
Procedure: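 Intracellular glutathione in U-2 OS cells after 24 h compound treatment at 5, 10 and 20 uM (some at 40 and 80 uM). Total glutathione and GSSG were measured with the GSH/GSSG-Glo kit, and the GSH:GSSG ratio was calculated. Mean of five technical replicate plates.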

U-2 OS [2] = experiment: relative cell count vs DMSO (cell painting) (fraction of DMSO control); higher = more cells remaining (less cytotoxic); details: 24 h
Method in brief: (§1)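 Cell painting used U-2 OS cells at about 1,500 per well in 384-well plates, treated by pin tool for 24 h at 37 °C, usually at six 2-fold concentrations from 20 μM to 625 nM. Cells were stained with MitoTracker, concanavalin A, phalloidin, wheat germ agglutinin, Hoechst and SYTO 14 and imaged on an Opera Phenix. Features were extracted with CellProfiler and normalized to DMSO cells on the same plate. The activity score is the Mahalanobis distance from DMSO wells; cell count is relative to DMSO wells. Values are means of four replicate plates.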

U-2 OS [3] = experiment: cell viability (CellTiter-Glo) relative to DMSO (% of control); higher = more viable; details: 24 h
Procedure: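 Cell viability of U-2 OS cells by CellTiter-Glo after 24 h compound treatment at 5, 10 and 20 uM (some at 40 and 80 uM), measured in parallel with the glutathione assay, as percent of DMSO control. Five technical replicate plates, averaged.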

U-2 OS [4] = experiment: total intracellular glutathione (GSH + GSSG) relative to DMSO (% of control); higher = more glutathione; details: 24 h
Procedure: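 Total intracellular glutathione (GSH + GSSG) in U-2 OS cells by GSH/GSSG-Glo after 24 h compound treatment at 5, 10 and 20 uM (some at 40 and 80 uM), as percent of DMSO control. Five technical replicate plates, averaged.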

U-2 OS [5] = experiment: cell painting activity score (Mahalanobis distance from DMSO wells); higher = stronger morphological phenotype; details: 24 h
Method in brief: as §1

U-2 OS [6] = experiment: AUC of culture confluence over time (live-cell imaging) (AUC (confluence % x time)); higher = more confluent culture (less growth inhibition)
Method in brief: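 Live-cell imaging tracked confluence of U-2 OS cells grown in F-12K medium plus 10% FBS. After seeding at 750 cells per well in 384-well plates, cells received compounds by pin tool 24 h later, mostly at 20, 10 and 5 μM, with 0.2% DMSO. Plates stayed at 37 °C and were imaged every 4 h for up to 60 h. Each value is the area under the confluence-versus-time curve.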

Compound	intracellular GSH:GSSG ratio (U-2 OS [1]; 5 µM)	relative cell count (U-2 OS [2]; 0.625 µM)	relative cell count (U-2 OS [2]; 1.25 µM)	relative cell count (U-2 OS [2]; 2.5 µM)	relative cell count (U-2 OS [2]; 5 µM)	relative cell count (U-2 OS [2]; 10 µM)	relative cell count (U-2 OS [2]; 20 µM)	cell viability (U-2 OS [3]; 5 µM)	cell viability (U-2 OS [3]; 10 µM)	cell viability (U-2 OS [3]; 20 µM)	total intracellular glutathione (U-2 OS [4]; 5 µM)	total intracellular glutathione (U-2 OS [4]; 10 µM)	total intracellular glutathione (U-2 OS [4]; 20 µM)	cell painting activity score (U-2 OS [5]; 0.625 µM)	cell painting activity score (U-2 OS [5]; 1.25 µM)	cell painting activity score (U-2 OS [5]; 2.5 µM)	cell painting activity score (U-2 OS [5]; 5 µM)	cell painting activity score (U-2 OS [5]; 10 µM)	cell painting activity score (U-2 OS [5]; 20 µM)	AUC of culture confluence over time (U-2 OS [6]; 5 µM)	AUC of culture confluence over time (U-2 OS [6]; 10 µM)	AUC of culture confluence over time (U-2 OS [6]; 20 µM)	intracellular GSH:GSSG ratio (U-2 OS [1]; 10 µM)	intracellular GSH:GSSG ratio (U-2 OS [1]; 20 µM)	intracellular GSH:GSSG ratio (U-2 OS [1]; 40 µM)	intracellular GSH:GSSG ratio (U-2 OS [1]; 80 µM)	cell viability (U-2 OS [3]; 40 µM)	cell viability (U-2 OS [3]; 80 µM)	total intracellular glutathione (U-2 OS [4]; 40 µM)	total intracellular glutathione (U-2 OS [4]; 80 µM)	relative cell count (U-2 OS [2]; 40 µM)	relative cell count (U-2 OS [2]; 80 µM)	cell painting activity score (U-2 OS [5]; 40 µM)	cell painting activity score (U-2 OS [5]; 80 µM)
C=CC(=O)Nc1cccc(Oc2nc(Nc3ccc(N4CCN(C)CC4)cc3OC)ncc2Cl)c1	24.9	1.09	1	0.976	0.957	0.914	0.342	87.2 ± 3.6	76 ± 1.4	39.8 ± 1.5	110 ± 7.6	102 ± 5.2	108 ± 2	5.47	8.25	10.7	9.73	12.1	14.9	42.4	21.9	5.33	–	–	–	–	–	–	–	–	–	–	–	–
COc1ccc(/C(Cl)=C(\C=O)c2ccc(OC)cc2)cc1	20.2	1	0.996	1.01	0.987	0.98	0.996	101 ± 3.7	102 ± 3.2	99.8 ± 6.2	125 ± 6.9	125 ± 4.8	111 ± 2.4	6.88	4.52	5.61	10.1	11.3	12	45.3	38.1	35.7	16.5	15.7	7.85	9.31	77.1 ± 5	69.9 ± 4.5	76.7 ± 2.6	79.8 ± 4.3	–	–	–	–
Nc1nc(-c2ccccc2)ns1	29.7	1	0.944	0.943	0.973	1	1.01	104 ± 5.4	104 ± 3	101 ± 6.3	107 ± 7.8	89.3 ± 4	117 ± 7.1	3.85	4.11	4.04	3.13	2.93	3.84	44.7	46.7	45.6	23.5	27.1	–	–	–	–	–	–	–	–	–	–
C=C(C)[C@@H](CC=C(C)C)C[C@@]12C[C@@H](CC=C(C)C)C(C)(C)[C@@](CC=C(C)C)(C(=O)/C(=C(\O)c3ccc(O)c(O)c3)C1=O)C2=O	21	0.996	0.96	0.961	0.986	0.836	0.53	97 ± 2.7	101 ± 5.7	86.3 ± 7	96.4 ± 3.2	89 ± 1.9	76.7 ± 6.1	5.64	4.81	6.25	5.03	9.54	9.17	–	–	–	16.1	24.5	21.3	0.823	44.8 ± 18	0.589 ± 0.13	53.2 ± 8.8	5.32 ± 1.5	0.267	0.116	14.9	28.1
COc1ccc(C[C@H](N)C(=O)N[C@H]2[C@@H](O)[C@H](n3cnc4c(N(C)C)ncnc43)O[C@@H]2CO)cc1	3.09	1.04	0.891	0.637	0.283	0.157	0.0622	10.2 ± 1.6	2.46 ± 0.44	1.28 ± 0.26	12.5 ± 1.3	4.88 ± 0.7	4.55 ± 0.68	13.8	17.7	20.2	25.3	32.9	33.9	–	–	–	1.12	–	–	–	–	–	–	–	–	–	–	–
COc1cc(/C=C/C(=O)CC(=O)/C=C/c2ccc(O)c(OC)c2)ccc1O	16.9	0.919	0.894	0.876	0.892	0.772	0.482	101 ± 7.1	90 ± 6.6	70.2 ± 3.2	112 ± 20	116 ± 3.4	100 ± 5.8	3.83	3.58	4.65	6.94	9.69	10.7	–	–	–	10.3	6.3	4.46	0.7	40.9 ± 2.8	36.2 ± 3.8	44.2 ± 2.1	41.5 ± 3.5	–	–	–	–
CC1=C(CO)C(=O)O[C@H](C(C)[C@H]2CC[C@@H]3[C@H]4C[C@H]5O[C@@]56[C@@H](O)C=CC(=O)[C@@]6(C)C4CC[C@@]23C)C1 (stereo not given in full)	1.55	0.988	0.352	0.402	0.38	0.146	0.0181	55.7 ± 8.4	42.7 ± 2	59.4 ± 12	43.6 ± 5.1	39.2 ± 4.1	32.8 ± 3.3	10.3	16.1	17.1	17.6	29	20.3	–	–	–	4.28	0.143	–	–	–	–	–	–	–	–	–	–
